Values after ≈ are worked out from the molar mass of the structure shown. Like-named read-outs stand apart in the source and are kept apart here. Positions of bridges follow the written chain, without caps; N, C: chain ends. Non-standard residues stand in square brackets, D forms with d. Residues, ends and D or L forms follow the SMILES beside them. NMeF = CN[C@@H](Cc1ccccc1)C(=O)O; NMeNva = CCC[C@H](NC)C(=O)O; NMeC = CN[C@@H](CS)C(=O)O; NMeA = CN[C@@H](C)C(=O)O; dAbu = CC[C@@H](N)C(=O)O; dNMeA = CN[C@H](C)C(=O)O; Abu = CC[C@H](N)C(=O)O; Nleu = CC(C)CNCC(=O)O; NPrGly = CCCNCC(=O)O
How the values were obtained:
[1] = MDCK
Protocol: (§1) We also tested the permeabilities of the pure compounds in a cell-based trans-well permeability assay using Mdr1 knockout Madin–Darby canine kidney (MDCK) cells which minimize the endogenous efflux activity of traditional MDCK cells.[54]
(§2) The gMDCKI cell line (overexpressed cell line of Madin -Darby Canine Kidney which acquired from the NIH)
(§3) maintained in DMEM medium supplemented with 1% pen -strep, 5 µg/mL Plasmocin, and 10% FBS under
(§4) standard culture conditions (37 °C, 95% humidity, and 5% CO2), were seeded (0.75 x 10^5 cells) on the HTS
(§5) Transwell-96 permeable support (Corning) to form a confluent monolayer for two days.
(§6) All experimental steps were fully automated on Hamilton Vantage. Compound stock solution (1 mM in
(§7) DMSO) was diluted (10 μM final in HBSS, pH 7.4) with Lucifer Yellow as leakage indicator (20 μM). After
(§8) washing with HBSS buffer, the solution of test compounds was added to the apical side of the monolayers.
(§9) The plate was incubated for 3 h at 37 °C. T0 samples (10 µL of the 10 µM compounds diluted solution with
(§10) LY) were transferred to a 96-well plate, and then 40 µL of HBSS was added. After 3 hours, 50 μL basolateral
(§11) samples in the receiving plate were transferred to a fresh 96-well plate and added 100 μL of IS solution
(§12) (Propranolol). LY were read by plate reader and the samples were analyzed by LC/MS/MS.
(§13) The apparent permeability coefficient (Papp) is calculated from the permeation rate and compound
concentration at t=0h and t=3h. Where:
(§14) dQ/dt: amount of product present in the basal (A-B) or apical (B-A) compartment as a function of time
A: area of transwell (cm2).
(§15) C0: initial concentration of product applied in the apical (A -B) or basal (B-A) compartment (nmol/ml).

[2] = PAMPA, individually resynthesized pure compounds (primary protocol);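 further: artificial membrane of 1% soy lecithin in dodecane on a filter plate, donor and acceptor buffer PBS pH 7.4 with 5% DMSO, incubated overnight at room temperature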
Protocol: (§16) assay was carried out with a 96-well donor plate with 0.45 μ hydrophobic Immobilon-P membrane supports
(§17) (Millipore MAIPNTR10) and a 96-well Teflon acceptor plate (Millipore MSSACCEPTOR). The PAMPA
protocol then proceeded as follows:
(§18) Donor well solutions were prepared to a volume of 1 000 µL with the analytes as a solution in 1X
(§19) PBS pH 7.4 and 5% DMSO. To a 3 mL Eppendorf tube was added 950 µL of 1X PBS pH 7.4, 40
Analyte – 10 µM per compound
(§20) sonicated (5 min) to ensure full dissolution of the lecithin. The donor membrane plate was turned
(§21) upside down and bottom of the membranes exposed. 5 µL of the 1% soy lecithin solution in
(§22) dodecane was then placed on the bottom of the membrane, allowing the drop to spread across the
(§23) full area of the membrane. Any membranes with visible damage were not used in the assay. The
(§24) membranes were allowed to equilibrate for 5 min before loading.
(§25) 3. Each well within the Teflon block acceptor plate that was to be used in the assay was then loaded
(§26) with 300 µL of 1X PBS pH 7.4 and 5% DMSO.
(§27) Working without break, 150 µL of each donor well solution was transferred from the to the 96-well
(§28) donor plate. Each mixture of interest was r un in quadruplicate, using a new well for each replicate.
(§29) As soon as the 96-well donor plate was finished being loaded, it was gently placed into the 96-well
(§30) Teflon acceptor plate, taking care not to trap any air bubbles beneath the membrane.
(§31) The donor/acceptor plates were covered gently with the lid to minimize evaporation and transferred
(§32) gently as a system to a sealed chamber and left to sit overnight at room temperature. The chamber
(§33) was kept from drying by placing a wet paper towel within to prevent evaporation.
(§34) After ~19-20 hours the donor plate was removed from the acceptor plate.
(§35) 50 µL of each well (donor and acceptor) were transferred to a 96 -well plate and diluted with 50 µL
(§36) of methanol prior to heat sealing and quantification by UPLC -MS.

[3] = tested on: Mdr1 knockout Madin–Darby canine kidney (MDCK) cells
Protocol: as §1, §2, §3, §4, §5, §6, §7, §8, §9, §10, §11, §12, §13
concentration at t=0h and t=3h. Where:
as §14
A: area of transwell (cm2).
as §15

in vitro [4] = settings: PAMPA
Protocol: as §16, §17
protocol then proceeded as follows:
as §18, §19
Analyte – 10 µM per compound
as §20, §21, §22, §23, §24, §25, §26, §27, §28, §29, §30, §31, §32, §33, §34, §35, §36

[5] = PAMPA
Protocol: as §16, §17
protocol then proceeded as follows:
as §18, §19
Analyte – 10 µM per compound
as §20, §21, §22, §23, §24, §25, §26, §27, §28, §29, §30, §31, §32, §33, §34, §35, §36

in vitro [6] = settings: dog, pH 7.4
Protocol: as §1, §2, §3, §4, §5, §6, §7, §8, §9, §10, §11, §12, §13
concentration at t=0h and t=3h. Where:
as §14
A: area of transwell (cm2).
as §15

in vitro [7] = settings: PAMPA, pH 7.4, Permeability (Papp) PAMPA (mixture)
[8] = PAMPA, 10 µM, pH 7.4
[9] = 10 µM, pH 7.4
Protocol: as §16, §17
protocol then proceeded as follows:
as §18, §19
Analyte – 10 µM per compound
as §20, §21, §22, §23, §24, §25, §26, §27, §28, §29, §30, §31, §32, §33, §34, §35, §36

[10] = parameters: method as in Fouché et al.; settings: ref Fouché et al.; cited from earlier work
[11] = parameters: method as in Fouché et al.; settings: rat; ref Fouché et al.; cited from earlier work
[12] = pH 7.4, Permeability (Papp) PAMPA (indiv.)

Protocol for physchem: Kinetic Solubility PBS Protocol
4 µL of 10 mM compound in DMSO stock was added to 196 µL 1 X PBS pH 7.4 in a 96 -well microplate to
get a final concentration of 200 µM to shake for 24 hours at 1000 rpm. The sample was filtered sample
using a 96-Multiscreen HTS filter plate (Millipore MSSL BPC50) and a positive pressure manifold.

| SMILES | Papp [1] | Papp [5] | Papp at 10 µM (in vitro [4]; [12]) | %R_avg [8] | Papp A→B at 3 h, 10 µM (in vitro [6]; MDCK) | PAMPA Papp_avg [9] | also measured |
| --- | --- | --- | --- | --- | --- | --- | --- |
| CCOC(=O)[C@@H]1CSCC(=O)N[C@H](CC)C(=O)N(C)[C@@H](C)C(=O)N[C@@H](CC(C)C)C(=O)N(C)[C@H](C)C(=O)N(CC(C)C)CC(=O)N[C@H](CC(C)C)C(=O)N(C)[C@H](C)C(=O)N[C@@H](CC(C)C)C(=O)N1C [A1, O=C(N(C)[C@H](C(OCC)=O)CSCC(N[C@@H](C(N(C)[C@@H](C)C(N[C@@H](CC(C)C)C(N(C)[C@H](C)C(N(CC(C)C)CC(N[C@@H]1CC(C)C)=O)=O)=O)=O)=O)CC)=O)[C@H](CC(C)C)NC([C@@H](C)N(C)C1=O)=O] ({CH2CO}-[dAbu][NMeA]L[dNMeA][Nleu][dL][dNMeA]L[NMeC]-OEt; thioether N-9) | 9 ×10⁻⁶ cm/s |  |  |  |  |  | Papp ([2]; PAMPA Papp, Figure 5): 10 ×10⁻⁶ cm/s; Papp ([2]; Papp): ~10 ×10⁻⁶ cm/s; MDCK Pe_avg ([3]; resynthesized stereoscan compounds, 10 μM, HBSS pH 7.4, 3 h): 9.02 ×10⁻⁶ cm/s |
| CCOC(=O)[C@@H]1CSCC(=O)N[C@H](CC)C(=O)N(C)[C@@H](C)C(=O)N[C@@H](CC(C)C)C(=O)N2CCC[C@@H]2C(=O)N(CC(C)C)CC(=O)N[C@H](CC(C)C)C(=O)N(C)[C@H](C)C(=O)N[C@@H](CC(C)C)C(=O)N1C [A1-4dP, O=C(N(C)[C@H](C(OCC)=O)CSCC(N[C@@H](C(N(C)[C@@H](C)C(N[C@@H](CC(C)C)C(N1[C@H](CCC1)C(N(CC(C)C)CC(N[C@@H]2CC(C)C)=O)=O)=O)=O)=O)CC)=O)[C@H](CC(C)C)NC([C@@H](C)N(C)C2=O)=O] ({CH2CO}-[dAbu][NMeA]L[dP][Nleu][dL][dNMeA]L[NMeC]-OEt; thioether N-9) |  | 0.3 ×10⁻⁶ cm/s |  |  |  |  | Papp at 10 µM (in vitro [4]; pH 7.4, PAMPA Pe_avg): 0.398 ×10⁻⁶ cm/s; MDCK Papp ([3]; MDCK): 0.0 × 10^–6 cm/s; Papp A→B at 3 h, 10 µM (in vitro [6]): 0.0246 ×10⁻⁶ cm/s |
| CCCN1CC(=O)N[C@@H](CC)C(=O)N(C)[C@@H](C)C(=O)N[C@@H](CC(C)C)C(=O)N(C)[C@H](C(=O)OCC)CSCC(=O)N[C@@H](CC(C)C)C(=O)N(C)[C@@H](C)C(=O)N[C@@H](CC(C)C)C(=O)N2CCC[C@@H]2C1=O [LA04, O=C(N(C)[C@H](C(OCC)=O)CSCC(N[C@H](C(N(C)[C@@H](C)C(N[C@@H](CC(C)C)C(N1[C@H](CCC1)C(N(CCC)CC(N[C@H]2CC)=O)=O)=O)=O)=O)CC(C)C)=O)[C@H](CC(C)C)NC([C@H](C)N(C)C2=O)=O] ({CH2CO}-L[NMeA]L[dP][NPrGly][Abu][NMeA]L[NMeC]-OEt; thioether N-9) |  |  | 3.9 ×10⁻⁶ cm/s | 8.2% | 4 ×10⁻⁶ cm/s | 3.86 ×10⁻⁶ cm/s | Papp at 10 µM (in vitro [7]): 4 ×10⁻⁶ cm/s; solubility kinetic at 24 h (physchem; pH 7.4, kinetic from dmso stock): 200 µM (≈ 199 µg/mL) |
| CCC[C@H]1C(=O)N[C@@H](CC)C(=O)N(C)[C@@H](C)C(=O)N[C@@H](CC(C)C)C(=O)N(C)[C@H](C(=O)OCC)CSCC(=O)N[C@@H](CC(C)C)C(=O)N(C)[C@@H](C)C(=O)N[C@@H](CC(C)C)C(=O)N2CCC[C@@H]2C(=O)N1C [LC04, O=C(N(C)[C@H](C(OCC)=O)CSCC(N[C@H](C(N(C)[C@@H](C)C(N[C@@H](CC(C)C)C(N1[C@H](CCC1)C(N(C)[C@@H](CCC)C(N[C@H]2CC)=O)=O)=O)=O)=O)CC(C)C)=O)[C@H](CC(C)C)NC([C@H](C)N(C)C2=O)=O] ({CH2CO}-L[NMeA]L[dP][NMeNva][Abu][NMeA]L[NMeC]-OEt; thioether N-9) |  |  | 3.3 ×10⁻⁶ cm/s | 11.2% | 6.5 ×10⁻⁶ cm/s | 3.3 ×10⁻⁶ cm/s | solubility kinetic at 24 h (physchem; pH 7.4, aqueous with cosolvent or surfactant or cyclodextrin, kinetic from dmso stock): 183 µM (≈ 185 µg/mL) |
| CC(C)C[C@@H]1NC(=O)[C@H](Cc2ccccc2)N(C)C(=O)[C@H]2CCCN2C(=O)[C@H](CC(C)C)NC(=O)[C@H](C)N(C)C(=O)[C@H](CC(C)C)NC(=O)[C@H](Cc2ccccc2)N(C)C(=O)[C@H]2CCCN2C(=O)[C@H](CC(C)C)NC(=O)[C@H](C)N(C)C1=O [compound 1] (cyclo(L[NMeA]L[dP][NMeF]L[NMeA]L[dP][NMeF])) | 11.4 ×10⁻⁶ cm/s | 5 ×10⁻⁶ cm/s |  |  |  |  | PAMPA Papp [10]: 5.01 × 10^–6 cm/s; oral bioavailability [11]: 46 %F |
